Measured values as given in patent US20120190751A1, “COMPOUNDS FOR TREATMENTS OF INFLAMMATION” (ANA-MAR AB, priority 2009, published 2012).
“Also recorded” adds a separate entry of the source.

Columns and labels:
[1] = molecular target: T1, 5-HT2B receptor (Rattus norvegicus, UniProt P30994); assay: 5-HT2B tissue assay (functionality, rat stomach fundus contraction); type: cell-based; conditions: FIG. 2, read-out: IC50, antagonistic effect on 5-HT2B
T1 construct: induces contraction in the rat stomach fundus from Wistar rats; from tissue; host or cells: rat (Wistar) stomach fundus
T1 sequence (P30994 whole entry): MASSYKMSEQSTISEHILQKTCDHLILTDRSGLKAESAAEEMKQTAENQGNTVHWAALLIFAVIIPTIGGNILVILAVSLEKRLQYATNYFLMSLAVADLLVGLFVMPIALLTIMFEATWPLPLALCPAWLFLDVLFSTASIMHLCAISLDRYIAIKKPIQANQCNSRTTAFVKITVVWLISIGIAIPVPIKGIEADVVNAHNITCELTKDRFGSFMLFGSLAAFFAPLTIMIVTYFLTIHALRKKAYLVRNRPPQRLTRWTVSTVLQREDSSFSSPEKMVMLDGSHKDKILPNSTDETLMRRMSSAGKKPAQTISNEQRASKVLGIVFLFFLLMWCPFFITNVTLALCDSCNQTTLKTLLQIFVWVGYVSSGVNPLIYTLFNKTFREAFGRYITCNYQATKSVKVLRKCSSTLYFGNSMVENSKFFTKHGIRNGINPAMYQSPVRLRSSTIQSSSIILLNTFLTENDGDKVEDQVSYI
Experimental: (Cohen M L, Fludzinski L A. Contractile serotonergic receptor in rat stomach fundus. J. Pharmacol. Exp. Ther. (1987 October); 243(1):264-269.)
FIG. 2. Antagonistic effect of N-(2-chloro-3,4-dimethoxybenzylideneamino)guanidine on 5-HT2B and 5-HT2C receptors. The functionality of the compound was evaluated with the 5-HT2B tissue assay and the 5-HT2C GTPγS binding assay methods.
(§1) N-(2-chloro-3,4-dimethoxybenzylideneamino)guanidine was further tested for functionality against 5-HT2B (Cohen et al. (1987), J. Pharmacol. Exp. Ther. 243:264-269), 5-HT2C (Adlersber M, et al. (2000), J. Neurosci. Res. 61(6):674-685; Cussac D. et al. (2002), Mol. Pharmacol. 62(3):578-589) and 5-HT4 (Reeves et al. (1991), Br. J. Pharmacol. 103:1067-1072).

[2] = tested on: rat synoviocytes; assay: IL-6 release from LPS-stimulated rat synoviocytes; type: cell-based; conditions: 72 hours
Experimental: Pannus from the inflamed knee of rats with antigen-induced arthritis (AIA) (see description of this model below; Andersson, S. E et al., (1998), J. Rheumatology 25: 1772-1777) was isolated three to five days after challenge, stored in PBS supplemented with 100 U/ml Penicillin-Streptomycin (PEST, Invitrogen Corporation) and 2.5 μg/ml Fungizone (Amphotericin B, Invitrogen) until it was further processed within a couple of hours. The PBS was discarded and the tissue cut in small pieces followed by digestion in a collagenase solution (400 U/ml; type 1 CLS-1, Worthington) for 3 hours at 37° C., 5% CO2. The suspension was filtered through a nylon mesh (70 μm), washed with tissue culture medium (RPMI-1640 with L-glutamine, Invitrogen, supplemented with 10% fetal bovine serum (FBS) and 100 U/ml PEST and 2.5 μg/ml Fungizone) and centrifuged (257 g). The cells were resuspended in tissue culture medium and seeded in cell culture flasks (T25, TPP). After overnight culture, nonadherent cells were removed by exchanging the medium, the cells were incubated at 37° C., 5% CO2, the medium was exchanged every third day until confluence was reached (7-10 days). The culture consisted of a mixed cell population with the principal constituents being fibroblasts and macrophages (Andersson, S. E. et al. (2000), Eur. J. Pharm. Sci 9: 333-343).
The cells were counted and reseeded at a density of 10000 cells/0.2 ml in 96-well cell culture plates (Nunc). After overnight culture the cells were stimulated with 50 ng/ml Lipopolysaccharide (LPS, E. coli 055:B5, Sigma) with simultaneous addition of 0.1, 1 and 10 μM N-(2-chloro-3,4-dimethoxybenzylideneamino)guanidine and 1 μM of 5-HT2 receptor agonists (triplicates). The cells were incubated for 72 hours after which the supernatants were collected and analyzed for IL-6 (OptEIA™ Set Rat IL-6). The effect of treatment on cell viability was determined using the cell proliferation reagent, WST-1 (Roche Diagnostics).
Inflamed knee joints of rats with antigen-induced arthritis (AIA) were dissected four days after intra-articular challenge with antigen. Freshly isolated pannus tissue was collected in phosphate-buffered saline (PBS) supplemented with 100 U/ml penicillin, streptomycin (PEST, Invitrogen) and 2.5 μg/ml Fungizone (Amphotericin B, Invitrogen), finely minced with a pair of scissors and digested with 400 U/ml collagenase (type 1 CLS-1, Worthington) in RPMI 1640 (Gibco) supplemented with PEST and fungizone (2.5 μg/ml) for 3 hours. The cell suspension was filtered through a 70 μm nylon mesh and the cells collected by centrifugation at 257×g, 10 min. The cells were resuspended in RPMI 1640 supplemented with 10% FBS (Gibco), PEST and fungizone (culture medium), plated in T25 flasks (TPP Cat#90026). After overnight incubation nonadherent cells were removed and the culture medium was replaced every third day until the cells approached confluency (normally achieved within 7-10 days). At near-confluency, the cells were washed with PBS and harvested by trypsination. After washing in PBS the cells were resuspended in culture medium and seeded at 10.000 cells/well/0.2 ml in 96 well plates (Nunc cat#167008). After overnight culture the culture medium was replaced with fresh medium and 50 ng/ml LPS (Sigma, L6529) together with different concentrations of 5-HT, 5-HT2 receptor agonists and/or antagonists and N-(2-chloro-3,4-dimethoxybenzylideneamino)guanidine. The cells were incubated for 72 hours after which the supernatants were collected and analyzed for IL-6 (BD OptEIA™ Set). The effect of treatment on cell viability was determined using the cell proliferation reagent, WST-1 (Roche Diagnostics). In another experiment rat synoviocytes were incubated with 50 ng/ml LPS for 2 or 22 hours were after the levels of 5-HT was analysed in the cell culture medium using a Serotonin ELISA kit (IBL International, RE59121). We also incubated rat synoviocytes with 5-HT (10 μM) and measured the gene expression of 5-HT2B and 5-HT2C.

[3] = tested on: antigen-induced arthritis; assay: Antigen-induced arthritis (AIA) in the rat, knee-joint swelling; type: in vivo
Source text: Antigen-Induced Arthritis (AIA) is a Well-Documented Animal Experimental Model of human arthritic disease (Dumonde, D. C. and Glynn, L. E. (1962), Br. J. Exp. Pathol. 43:373-383). In this model, inflammation is induced by immunization followed by an intra-articular (knee-joint) challenge with the antigen. This causes an increase in knee diameter due to the formation of a pannus, i.e. hyperproliferative synovial tissue, which spreads over the articular cartilage into the bone, leading to erosion and destruction of the joint tissue (Carpenter, T. A. et al. (1994), Skeletal Radiol. 23:429-437).
AIA was applied for a short-term in vivo evaluation of our test compounds, with treatment during 4 days.
Female Dark Agouti rats were sensitized subcutaneously at the tail root with 1 mg mBSA (Sigma A1009) dissolved in 50 μl saline and emulsified in 50 μl Freund's complete adjuvant (Sigma F5881). Eleven days later the rats were challenged (unilateral) with an intra-articular (i.a.) injection of 75 μg mBSA dissolved in 50 μl saline. The procedures were carried out under a brief Isoflurane anaesthesia. Animals were treated once or twice daily with oral administration of N-(2-chloro-3,4-dimethoxybenzylideneamino)guanidine in saline. […] The knee-joint swelling was measured daily with an odimeter/calliper; the body weight was recorded before arthritis induction and at the end of the experiment. […]

[4] = molecular target: 5-HT4 receptor (Rattus norvegicus, UniProt Q62758); assay: 5-HT4 functionality test; conditions: at 100 μM
Sequence of 5-HT4 receptor (Q62758 whole entry): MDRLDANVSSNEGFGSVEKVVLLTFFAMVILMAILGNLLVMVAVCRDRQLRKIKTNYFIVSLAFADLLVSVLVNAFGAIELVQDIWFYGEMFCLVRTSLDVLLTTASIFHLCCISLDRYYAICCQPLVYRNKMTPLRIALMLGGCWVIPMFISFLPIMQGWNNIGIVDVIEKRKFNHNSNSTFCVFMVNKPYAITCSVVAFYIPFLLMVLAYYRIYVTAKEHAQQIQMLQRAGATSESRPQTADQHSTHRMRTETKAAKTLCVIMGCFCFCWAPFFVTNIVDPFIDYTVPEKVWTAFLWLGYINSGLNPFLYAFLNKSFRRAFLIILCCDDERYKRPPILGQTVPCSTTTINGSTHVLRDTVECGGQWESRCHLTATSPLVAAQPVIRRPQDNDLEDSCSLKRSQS
Source text: as §1

`COc1ccc(C=NNC(=N)N)c(Cl)c1OC` [N-(2-chloro-3,4-dimethoxybenzylideneamino)guanidine] was tested, and the IC50 [1] was 61.7 µM, the “IL-6 release induced by 5-HT and LPS” value ([2]; 1 μM 5-HT + LPS 50 ng/ml, test substance 0.1, 1 or 10 μM, FIG. 7A) was “reduces the IL-6 response” and the “IL-6 production induced by BW 723C86 (5-HT2B agonist) and LPS” value ([2]; 1 μM BW 723C86 + LPS 50 ng/ml, compound 0.1, 1, 10 μM, FIG. 4, FIG. 7B) was “in a dose-dependent way is counteracted; also recorded: reversed the effects”. The “IL-6 production induced by CP 809101 (5-HT2C agonist) and LPS” value ([2]; 1 μM CP 809101 + LPS 50 ng/ml, compound 0.1, 1, 10 μM, FIG. 4, FIG. 7B) was “is counteracted; also recorded: reversed the effects”, the “effect in AIA at administration one day after disease induction” value ([3]; administration started one day after disease induction) was “therapeutic effect” and the “knee-joint swelling in AIA” value ([3]; oral, 1-10 mg/kg once or twice daily for 4 days from day of challenge, FIG. 5) was “reproducibly reduce joint swelling”. The “effect on 5-HT4 (functionality)” value [4] was “no significant effect”.
